Results reported in the supplement of paper PMC10307832.

How the values were obtained:
Assay in all cases: relative viability (nuclei count vs DMSO), 5 days (fraction); higher = more cells survive
TPCA-1 + Decitabine = compound: C1=CC(=CC=C1C2=CC(=C(S2)NC(=O)N)C(=O)N)F [TPCA-1] + Nc1ncn([C@H]2C[C@H](O)[C@@H](CO)O2)c(=O)n1 [Decitabine] (partner 2 µM)
How it was run: (§1)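 A single step with final 0.05% Triton X-100, 1% formaldehyde and 1 ug/ml Hoechst fixed the cells and stained nuclei 5 days after treatment. Lung cancer cell lines in 1536-well plates had been treated by pin tool the day after seeding with one drug alone or a fixed anchor-drug dose plus five library-drug doses (not always all listed) in √10 steps, and nuclei were counted on 4× images. Relative viability is the ratio of nuclei in treated wells to nuclei in vehicle wells, taken as the median of duplicate plates.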

[1] = compound: C[C@]12O[C@H](C[C@]1(O)CO)n1c3ccccc3c3c4c(c5c6ccccc6n2c5c31)CNC4=O [Lestaurtinib] + O=C(CCCCCCC(=O)Nc1ccccc1)NO [Vorinostat] (partner 1 µM)
How it was run: as §1

[2] = compound: C[C@]12O[C@H](C[C@]1(O)CO)n1c3ccccc3c3c4c(c5c6ccccc6n2c5c31)CNC4=O [Lestaurtinib] + CC(=O)c1c(C)c2cnc(Nc3ccc(N4CCNCC4)cn3)nc2n(C2CCCC2)c1=O [Palbociclib] (partner 0.5 µM)
How it was run: as §1

TPCA-1 + Alpelisib = compound: C1=CC(=CC=C1C2=CC(=C(S2)NC(=O)N)C(=O)N)F [TPCA-1] + Cc1nc(NC(=O)N2CCC[C@H]2C(N)=O)sc1-c1ccnc(C(C)(C)C(F)(F)F)c1 [Alpelisib] (partner 2 µM)
How it was run: as §1

| Cell Line | relative viability (TPCA-1 + Decitabine; first compound 0.04 µM) | relative viability (TPCA-1 + Decitabine; first compound 0.1265 µM) | relative viability (TPCA-1 + Decitabine; first compound 0.4 µM) | relative viability (TPCA-1 + Decitabine; first compound 1.265 µM) | relative viability (TPCA-1 + Decitabine; first compound 4 µM) | relative viability ([1]; first compound 0.005 µM) | relative viability ([1]; first compound 0.01581 µM) | relative viability ([1]; first compound 0.05 µM) | relative viability ([1]; first compound 0.1581 µM) | relative viability ([1]; first compound 0.5 µM) | relative viability ([2]; first compound 0.005 µM) | relative viability ([2]; first compound 0.01581 µM) | relative viability ([2]; first compound 0.05 µM) | relative viability ([2]; first compound 0.1581 µM) | relative viability ([2]; first compound 0.5 µM) | relative viability (TPCA-1 + Alpelisib; first compound 0.04 µM) | relative viability (TPCA-1 + Alpelisib; first compound 0.1265 µM) | relative viability (TPCA-1 + Alpelisib; first compound 0.4 µM) | relative viability (TPCA-1 + Alpelisib; first compound 1.265 µM) | relative viability (TPCA-1 + Alpelisib; first compound 4 µM) |
| --- | --- | --- | --- | --- | --- | --- | --- | --- | --- | --- | --- | --- | --- | --- | --- | --- | --- | --- | --- | --- |
| LU99A | 0.923 | 0.76 | 0.901 | 0.834 | 0.377 | 0.437 | 0.484 | 0.416 | 0.213 | 0.169 | 0.371 | 0.392 | 0.285 | 0.271 | 0.185 | 0.564 | 0.445 | 0.5 | 0.388 | 0.243 |
| NCI-H1666 | 0.711 | 0.607 | 0.743 | 0.695 | 0.707 | 1.1 | 1.22 | 1.24 | 0.998 | 0.799 | 0.705 | 0.704 | 0.638 | 0.74 | 0.646 | 1.08 | 0.813 | 0.925 | 1.04 | 0.747 |
| NCI-H2170 | 0.493 | 0.433 | 0.444 | 0.453 | 0.385 | 0.745 | 0.69 | 0.536 | 0.521 | 0.199 | 0.325 | 0.379 | 0.275 | 0.394 | 0.218 | 0.906 | 0.697 | 0.803 | 0.733 | 0.526 |
| NCI-H522 | 0.658 | 0.674 | 0.662 | 0.646 | 0.58 | 0.964 | 1.13 | 0.895 | 0.785 | 0.474 | 0.998 | 1 | 0.879 | 0.871 | 0.631 | – | – | – | – | – |
| LCLC-97TM1 | 0.274 | 0.23 | 0.214 | 0.247 | 0.243 | – | 0.744 | 0.389 | 0.187 | 0.155 | – | 0.243 | 0.133 | 0.134 | 0.194 | 0.249 | 0.241 | 0.223 | 0.248 | 0.187 |
| NCI-H1299 | – | – | – | – | – | – | – | – | – | – | – | – | – | – | – | 1.11 | 1.09 | 1.05 | 1.04 | 1.1 |
| Calu-6 | – | – | – | – | – | – | – | – | – | – | – | – | – | – | – | 0.982 | 0.988 | 1.04 | 0.85 | 0.539 |
| NCI-H1703 | – | – | – | – | – | – | – | – | – | – | – | – | – | – | – | 0.336 | 0.3 | 0.304 | 0.233 | 0.207 |
| NCI-H1650 | 0.424 | 0.42 | 0.433 | 0.382 | 0.397 | 0.667 | 0.528 | 0.784 | 0.54 | 0.491 | 0.353 | 0.433 | 0.356 | 0.396 | 0.245 | – | – | – | – | – |
| NCI-H2342 | 0.71 | 0.653 | 0.766 | 0.712 | 0.883 | 0.776 | 0.767 | 0.752 | 0.915 | 0.743 | 0.518 | 0.439 | 0.545 | 0.526 | 0.504 | – | – | – | – | – |
| NCI-H1792 | 0.674 | 0.465 | 0.551 | 0.474 | 0.307 | – | – | – | – | – | 0.976 | 0.734 | 0.491 | 0.768 | 0.366 | 0.733 | 0.714 | 0.646 | 0.675 | 0.389 |
| ChaGo-K-1 | 0.49 | 0.453 | 0.565 | 0.499 | 0.321 | 0.767 | 0.807 | 0.614 | 0.465 | 0.356 | 0.977 | 0.89 | 0.77 | 0.779 | 0.671 | – | – | – | – | – |
| CAL-12T | – | – | – | – | – | 0.793 | 0.881 | 0.622 | 0.484 | 0.241 | 0.365 | 0.526 | 0.409 | 0.302 | 0.183 | 1.22 | 0.907 | 0.93 | 1.1 | 0.707 |
| NCI-H2228 | – | – | – | – | – | 0.601 | 0.779 | 0.352 | 0.228 | 0.211 | 1.03 | 1.05 | 0.407 | 0.28 | 0.275 | 0.869 | 0.809 | 1.02 | 0.609 | 0.485 |
| SW 900 | – | – | 0.407 | 0.421 | 0.391 | 0.376 | 0.69 | 0.59 | 0.632 | 0.65 | 0.561 | 0.666 | 0.611 | 0.828 | 0.595 | – | – | – | – | – |
| NCI-H1648 | 0.605 | 0.578 | 0.495 | 0.519 | 0.569 | – | 0.543 | – | 0.807 | 0.29 | – | 0.317 | – | 0.393 | 0.466 | – | – | – | – | – |
| NCI-H596 | 1.02 | 0.997 | 1.07 | 1.1 | 1.07 | 0.539 | 0.746 | 0.718 | 0.645 | 0.795 | – | – | – | – | – | 0.545 | 0.485 | 0.442 | 0.428 | 0.345 |
| IA-LM | – | – | – | – | – | 1.2 | 1.05 | 1.02 | 1.33 | 0.625 | – | – | – | – | – | 0.912 | 0.619 | 0.729 | 0.892 | 0.677 |
| A549 | 0.219 | 0.423 | 0.284 | 0.182 | 0.102 | – | – | – | – | – | – | – | – | – | – | 0.891 | 0.824 | 0.911 | 0.736 | 0.296 |
